# Experimental data: ChEMBL document CHEMBL1201862, “PubChem BioAssay data set” (2004)
# Active and inactive are the calls of the source.
# Columns and labels:
# [1] = target: T1, Tyrosine-protein phosphatase non-receptor type 7 (Homo sapiens, UniProt P35236); experiment: redox-dependent HePTP inhibition, mechanism study, biochemical, fluorescence (AID 2068); assay type: functional
# T1 sequence (P35236 whole entry): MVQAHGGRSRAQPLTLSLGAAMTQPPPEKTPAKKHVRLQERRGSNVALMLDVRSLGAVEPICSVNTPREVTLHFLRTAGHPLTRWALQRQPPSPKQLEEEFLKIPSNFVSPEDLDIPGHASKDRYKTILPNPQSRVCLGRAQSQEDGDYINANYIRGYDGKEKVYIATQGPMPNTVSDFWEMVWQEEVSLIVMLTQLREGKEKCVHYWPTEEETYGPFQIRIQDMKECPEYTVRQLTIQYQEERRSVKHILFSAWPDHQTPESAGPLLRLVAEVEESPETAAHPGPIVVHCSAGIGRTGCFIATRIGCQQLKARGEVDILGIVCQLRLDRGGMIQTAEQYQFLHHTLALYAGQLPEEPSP
# [2] = target: T2, G-protein coupled receptor 55 (Homo sapiens, UniProt Q9Y2T6); experiment: GPR55 antagonists blocking LPI-driven arrestin recruitment, primary screen, imaging, U2OS, beta-arrestin-GFP, LPI agonist (AID 2013); assay type: functional;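 also: antagonist potency measured as reduced agonist-driven arrestin aggregation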
# [3] = system: Cryptococcus neoformans; experiment: PubChem AID 686997; assay type: functional, organism-based
# [4] = target: Hexokinase (Trypanosoma brucei, UniProt Q38C41); experiment: Confirmation assay for inhibitors of Trypanosoma brucei hexokinase 1-Analogue-first series. [Related pubchem assays (depositor defined):AID1430, AID1632, AID2516, AID2560, AID2579, AID2600, AID449725, AID492951]; assay type: functional
# [5] = system: BJ; experiment: cytotoxicity toward BJ-TERT fibroblasts, dose response, cell-based, RAS-independent, luminescence (AID 1933); assay type: functional; details: Homo sapiens
# [6] = system: BJ; experiment: cells; assay type: functional, cell-based; details: Homo sapiens
# [7] = system: BJ; experiment: cytotoxicity toward BJ-TERT-LT-ST fibroblasts, dose response, cell-based, RAS-independent, luminescence (AID 1935); assay type: functional; details: Homo sapiens;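 also: BJ fibroblasts immortalized with TERT plus LT and ST oncogenes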
# [8] = cytotoxicity toward DRD oncogenic fibroblasts, dose response, cell-based, non-viral oncogenic, luminescence (AID 1934); assay type: functional; details: Homo sapiens
# [9] = target: T2, G-protein coupled receptor 55; experiment: GPR55 agonists via beta-arrestin recruitment, primary screen, imaging, U2OS cells, beta-arrestin-GFP redistribution (AID 1961); assay type: functional
# [10] = target: T3, Microphthalmia-associated transcription factor (Homo sapiens, UniProt O75030); experiment: TRPM1 promoter luciferase signal decrease, dose response, MITF inhibitor project, cell-based, SK-MEL-5, cherry-picked, set 3 (AID 493073); assay type: functional
# T3 sequence (O75030 whole entry): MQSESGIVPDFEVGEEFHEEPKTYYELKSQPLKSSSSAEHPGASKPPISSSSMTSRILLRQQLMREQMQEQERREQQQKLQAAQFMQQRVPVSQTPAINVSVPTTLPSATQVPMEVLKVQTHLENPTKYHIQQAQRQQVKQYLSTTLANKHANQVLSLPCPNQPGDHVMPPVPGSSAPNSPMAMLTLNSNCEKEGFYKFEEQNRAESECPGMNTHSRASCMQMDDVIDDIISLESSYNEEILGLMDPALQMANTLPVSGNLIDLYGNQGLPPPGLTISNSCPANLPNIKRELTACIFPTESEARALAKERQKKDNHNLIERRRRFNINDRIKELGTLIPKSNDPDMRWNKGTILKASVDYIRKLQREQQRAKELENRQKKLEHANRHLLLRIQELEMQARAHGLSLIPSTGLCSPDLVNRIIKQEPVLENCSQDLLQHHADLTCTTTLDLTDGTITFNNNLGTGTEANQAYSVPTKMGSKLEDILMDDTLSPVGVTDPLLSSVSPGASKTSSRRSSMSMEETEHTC
# [11] = system: BJ; experiment: cytotoxicity toward Ras-transformed BJeLR fibroblasts, dose response, cell-based, alamar blue fluorescence, cherrypicked samples (AID 2631); assay type: functional; details: Homo sapiens;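 also: confirmatory dose-response assay in RAS-dependent BJ fibroblasts engineered with TERT, LT and ST, with cytotoxicity read by fluorescence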
# [12] = target: T4, RNA-binding protein pos-1 (Caenorhabditis elegans, UniProt G5EF15); experiment: inhibitors of POS-1/mex-3 RNA binding, dose response, biochemical, fluorescence polarization (AID 1964);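 also: purified POS-1 fused to maltose binding protein made in E. coli; potency of compounds blocking POS-1 binding to fluorescent RNA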
# T4 sequence (G5EF15 whole entry): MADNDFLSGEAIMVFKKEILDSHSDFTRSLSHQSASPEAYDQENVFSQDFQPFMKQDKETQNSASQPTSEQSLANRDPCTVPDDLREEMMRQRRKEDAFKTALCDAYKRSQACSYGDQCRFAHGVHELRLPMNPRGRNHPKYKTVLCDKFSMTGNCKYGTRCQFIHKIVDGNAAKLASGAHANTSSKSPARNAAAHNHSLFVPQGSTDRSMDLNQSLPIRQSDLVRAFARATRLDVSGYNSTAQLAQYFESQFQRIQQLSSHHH
# [13] = target: T5, Zinc finger protein mex-5 (Caenorhabditis elegans, UniProt Q9XUB2); experiment: MEX-5/TCR-2 RNA interaction inhibitors, dose response, biochemical, C. elegans, fluorescence polarization (AID 1960)
# T5 sequence (Q9XUB2 whole entry): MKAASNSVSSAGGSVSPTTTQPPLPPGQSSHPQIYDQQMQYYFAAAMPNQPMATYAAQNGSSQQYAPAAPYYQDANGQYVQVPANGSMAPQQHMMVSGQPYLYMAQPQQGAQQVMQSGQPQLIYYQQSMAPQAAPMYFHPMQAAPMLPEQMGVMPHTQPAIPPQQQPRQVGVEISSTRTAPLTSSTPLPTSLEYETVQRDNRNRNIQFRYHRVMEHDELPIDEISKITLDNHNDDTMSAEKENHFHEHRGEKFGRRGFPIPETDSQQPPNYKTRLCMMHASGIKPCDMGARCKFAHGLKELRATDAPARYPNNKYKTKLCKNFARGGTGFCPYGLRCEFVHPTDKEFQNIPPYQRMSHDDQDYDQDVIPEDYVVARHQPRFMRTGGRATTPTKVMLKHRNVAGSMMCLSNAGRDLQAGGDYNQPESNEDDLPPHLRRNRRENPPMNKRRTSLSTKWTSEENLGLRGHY
# [14] = target: Induced myeloid leukemia cell differentiation protein Mcl-1 (Homo sapiens, UniProt Q07820); assay type: functional
# [15] = target: Troponin, cardiac muscle (Homo sapiens, UniProt P19429+P45379+P63316); experiment: inhibitors of cardiac thin filament calcium sensitivity, dose response, biochemical, fluorescence, cardiac regulated thin filaments, triplicate IC50 (AID 504742); assay type: protein-complex assay
# [16] = target: Genome polyprotein (dengue virus type 2, UniProt P29990); experiment: Dengue-2 NS5 methyltransferase inhibitors, primary screen, biochemical, confirmation dose response (AID 588689); assay type: functional
# [17] = target: T6, Polyadenylate-binding protein 1 (Homo sapiens, UniProt P11940); experiment: PABP1 MLLE–PAM2 interaction inhibitors, dose response, miRNA deadenylation inhibitor project, biochemical, fluorescence polarization, Cy5-PAM2 peptide, secondary (AID 602260); assay type: functional; details: read-out: IC50_Mean
# [18] = target: T6, Polyadenylate-binding protein 1; experiment: PABP1 MLLE–PAM2 binding inhibitor potency, dose response, biochemical, fluorescence polarization, FITC-PAM2 peptide (AID 602259); assay type: functional; details: read-out: IC50_Mean
# [19] = target: T7, Rac GTPase-activating protein 1 (Homo sapiens, UniProt Q9H0H5); experiment: MgcRacGAP GTPase-activating activity inhibitors, confirmation, biochemical, ADP Hunter fluorescence, primary and confirmatory (AID 624330); assay type: functional
# T7 sequence (Q9H0H5 whole entry): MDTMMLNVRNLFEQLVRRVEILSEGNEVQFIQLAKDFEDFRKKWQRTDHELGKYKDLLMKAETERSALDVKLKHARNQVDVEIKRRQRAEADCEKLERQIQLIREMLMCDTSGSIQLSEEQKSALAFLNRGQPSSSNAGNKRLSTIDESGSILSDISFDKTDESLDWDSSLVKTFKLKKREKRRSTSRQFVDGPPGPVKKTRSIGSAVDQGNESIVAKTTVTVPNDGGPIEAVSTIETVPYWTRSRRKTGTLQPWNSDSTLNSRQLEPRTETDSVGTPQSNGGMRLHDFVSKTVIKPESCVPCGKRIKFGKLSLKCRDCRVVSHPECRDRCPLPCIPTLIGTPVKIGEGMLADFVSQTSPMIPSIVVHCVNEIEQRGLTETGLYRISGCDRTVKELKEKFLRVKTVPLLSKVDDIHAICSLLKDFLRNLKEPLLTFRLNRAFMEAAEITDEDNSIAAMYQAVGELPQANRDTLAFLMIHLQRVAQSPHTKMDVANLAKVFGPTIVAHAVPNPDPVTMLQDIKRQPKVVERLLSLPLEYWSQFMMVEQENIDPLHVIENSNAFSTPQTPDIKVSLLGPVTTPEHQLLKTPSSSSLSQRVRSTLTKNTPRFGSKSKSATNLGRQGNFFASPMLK
# [20] = target: Histone-lysine N-methyltransferase NSD2 (Homo sapiens, UniProt O96028); assay type: biochemical
# [21] = system: HEK293; experiment: NOD1 signaling inhibitors, primary screen, cell-based, luminescence, uHTS (AID 1578); assay type: functional; details: Homo sapiens
# [22] = system: HEK293; experiment: cells; assay type: functional, cell-based; details: Homo sapiens
# [23] = system: HEK293; experiment: cells; assay type: functional, cell-based; details: Homo sapiens; remark: listed apart in the source
# [24] = target: Nucleotide-binding oligomerization domain-containing protein 2 (Homo sapiens, UniProt Q9HC29); experiment: NOD2 signaling inhibitors, cell-based, luminescence, uHTS, HEK293 (AID 1566); assay type: functional
# [25] = system: HEK293; experiment: NOD2 signaling inhibitors in MDP-stimulated cells, cell-based, uHTS, luminescence (AID 2001); assay type: functional; details: Homo sapiens
# [26] = system: HEK293; experiment: cells; assay type: functional, cell-based; details: Homo sapiens; remark: listed apart in the source
# [27] = target: Tumor necrosis factor (Homo sapiens, UniProt P01375); experiment: TNFa-triggered NF-kB activation inhibitors, SAR follow-up, cell-based, revised (AID 2337); assay type: functional
# [28] = target: T8, Nucleotide-binding oligomerization domain-containing protein 1 (Homo sapiens, UniProt Q9Y239); experiment: NOD1 signaling inhibitors, SAR follow-up, revised (AID 2333); assay type: functional
# T8 sequence (Q9Y239 whole entry): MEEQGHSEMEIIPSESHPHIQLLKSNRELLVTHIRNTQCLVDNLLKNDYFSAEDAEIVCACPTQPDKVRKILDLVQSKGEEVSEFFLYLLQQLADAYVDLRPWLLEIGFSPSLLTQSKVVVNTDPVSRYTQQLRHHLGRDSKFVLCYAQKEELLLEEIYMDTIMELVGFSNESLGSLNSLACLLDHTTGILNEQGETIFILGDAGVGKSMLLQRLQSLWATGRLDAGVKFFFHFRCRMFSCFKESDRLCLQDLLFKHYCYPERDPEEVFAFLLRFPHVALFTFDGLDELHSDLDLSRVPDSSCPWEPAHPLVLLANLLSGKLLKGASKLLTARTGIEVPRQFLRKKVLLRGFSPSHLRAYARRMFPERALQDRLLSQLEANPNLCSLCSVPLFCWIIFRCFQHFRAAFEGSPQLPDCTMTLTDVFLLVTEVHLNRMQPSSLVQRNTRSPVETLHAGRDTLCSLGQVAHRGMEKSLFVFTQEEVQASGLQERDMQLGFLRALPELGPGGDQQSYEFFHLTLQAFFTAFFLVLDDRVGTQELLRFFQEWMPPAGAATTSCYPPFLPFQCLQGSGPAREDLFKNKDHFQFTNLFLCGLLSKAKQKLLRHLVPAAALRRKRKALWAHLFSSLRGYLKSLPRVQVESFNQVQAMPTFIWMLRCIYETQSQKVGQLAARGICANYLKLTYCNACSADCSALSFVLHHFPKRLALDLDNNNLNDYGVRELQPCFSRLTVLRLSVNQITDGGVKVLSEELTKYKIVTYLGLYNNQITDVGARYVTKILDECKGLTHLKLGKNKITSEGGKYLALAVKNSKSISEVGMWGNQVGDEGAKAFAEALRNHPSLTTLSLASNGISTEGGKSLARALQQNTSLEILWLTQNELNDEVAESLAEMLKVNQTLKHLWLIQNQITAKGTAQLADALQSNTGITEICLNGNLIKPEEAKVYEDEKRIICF
# [29] = system: HEK293; experiment: cells; details: Homo sapiens
smiles,measurement,setting,value
O=C(NCCc1ccccc1)Nc1ccc2nc(-c3ccco3)c(-c3ccco3)nc2c1,IC50,[1],0.472 µM (active)
S=C(Nc1ccc(Cl)cc1Cl)Nc1ccccc1Oc1ccccc1,IC50,[2],4.08 µM (active)
same,AC50,[3],44.9 µM (active)
CN(C)c1ccc(NC(=O)Cn2sc3ccccc3c2=O)cc1,IC50,[4],7.29 µM (active)
COc1ccc(C(=O)/C=C/C(=O)N(CC(=O)NC2CCCCC2)Cc2ccccc2OC)c(O)c1,EC50,[5],2.2 µM (active)
same,EC50,[6],3.7 µM (active)
same,EC50,[7],2.57 µM (inconclusive)
same,EC50,[8],3.39 µM (active)
same,EC50,[9],> 32 µM (inactive)
same,AC50,[10],4.04 µM (active)
same,EC50,[11],5.02 µM (inconclusive)
O=C(O)c1ccc2nc(-c3ccco3)c(-c3ccco3)nc2c1,EC50,[12],19.5 µM (inconclusive)
same,EC50,[13],10.1 µM (active)
same,IC50,[14],> 54 µM (active)
same,IC50,[15],20.9 µM (inactive)
same,IC50,[16],51 µM (active)
same,IC50,[17],> 66 µM (inactive)
same,IC50,[18],53.2 µM (inactive)
same,IC50,[19],159 µM (active)
same,AC50,[20],10.8 µM (active)
COc1ccc(N2CCN(C(=O)c3ccc(CNS(=O)(=O)c4ccc(C)cc4)cc3)CC2)cc1,EC50,[21],7.09 µM (active)
same,IC50,[22],10.1 µM (active)
same,IC50,[23],17.5 µM (active)
same,EC50,[24],> 20 µM (inactive)
same,IC50,[25],12.5 µM (inactive)
same,IC50,[26],> 20 µM (inactive)
same,IC50,[27],> 20 µM (inactive)
same,IC50,[28],> 20 µM (inactive)
same,IC50,[29],> 20 µM (inactive)
